Experimental data reported in the PolyMetriX glass transition set.
± gives the standard deviation of the reports.

First: *C(=O)c1ccc(Oc2ccc(-c3ccc(Oc4ccc(C(=O)c5ccc6c(c5)C(=O)N(c5ccc(Oc7ccc(N8C(=O)c9ccc(*)cc9C8=O)cc7)cc5)C6=O)cc4)cc3)cc2)cc1 (repeat unit)
Second: *c1ccc(Oc2ccc(C(=O)c3cccc(C(=O)c4ccc(Oc5ccc(-c6c7c(c(*)c8ccccc68)C(=O)N(c6ccc(F)cc6)C7=O)cc5)cc4)c3)cc2)cc1 (repeat unit)
The glass transition temperature of the first is lower: 233.00 °C for the first, 243.00 °C for the second.

Compared with *Oc1ccc(C2(c3ccc(OC(=O)c4ccc(Oc5ccc(C6(c7ccc(Oc8ccc(C(*)=O)cc8)cc7)CCC(C(C)(C)C)CC6)cc5)cc4)cc3)CCCCCCCCCCC2)cc1 (repeat unit), *Oc1ccc(C(c2ccc(Oc3ccc(C(=O)c4cccc(C(=O)c5ccc(*)cc5)c4)cc3)cc2)(C(F)(F)F)C(F)(F)F)cc1 (repeat unit) is lower in glass transition temperature: 181.00 °C for the first, 168.10 °C for the second.

First: */C=C(/*)C(CCCCCCC)[Si](C)(C)C (repeat unit)
Second: *OC(CCCCCC)CC(*)=O (repeat unit)
The glass transition temperature of the first is higher: 150.00 °C for the first, -47.00 °C for the second.

Compared with *C(=O)Nc1ccc(-c2ccc(NC(=O)c3ccc4c(c3)C(=O)N(c3ccc(NC(=O)Nc5ccc(N6C(=O)c7ccc(*)cc7C6=O)cc5)cc3)C4=O)cc2)cc1 (repeat unit), *C(=O)Nc1ccc(Oc2ccc(NC(=O)c3ccc4c(c3)C(=O)N(c3ccc(NC(=O)Nc5ccc(N6C(=O)c7ccc(*)cc7C6=O)cc5)cc3)C4=O)cc2)cc1 (repeat unit) is lower in glass transition temperature: 233.00 °C for the first, 205.00 °C for the second.

Compared with *CCc1ccc(CCNC(=O)CCCCCCCCCCCCC(=O)N*)cc1 (repeat unit), *CCCCCCCCCOC(=O)NCCCCCCNC(=O)O* (repeat unit) is lower in glass transition temperature: 93.00 °C for the first, 58.00 °C for the second.

First: *c1ccc(Cc2ccc(N3C(=O)c4ccc(Oc5ccc(Oc6ccc7c(c6)C(=O)N(*)C7=O)cc5)cc4C3=O)c(C)c2C)c(C)c1C (repeat unit)
Second: *c1ccc(Oc2ccc(NC(=O)c3cccc(Oc4ccc5c(c4)C(=O)N(*)C5=O)c3)cc2)cc1 (repeat unit)
The glass transition temperature of the first is higher: 277.00 °C for the first, 231.00 °C for the second.

First: *CC(*)(C)C(=O)Oc1ccc([N+](=O)[O-])c(C)c1 (repeat unit)
Second: *CC(*)(C)C(=O)OCCCCCCCCCCOc1ccc2cc(C(=O)Oc3ccccc3)ccc2c1 (repeat unit)
The glass transition temperature of the first is higher: 101.00 °C for the first, 24.00 °C for the second.

First: *=Cc1cc(OCCCCCCCC)c(/C=N/c2ccc(N=*)cc2)cc1OCCCCCCCC (repeat unit)
Second: */C=C/c1cc(OCCCCCCC)c(/C=C/c2ccc(*)cc2)cc1OCCCCCCC (repeat unit)
The glass transition temperature of the first is lower: 32.70 °C for the first, 46.00 °C for the second.

First: *Oc1cccc(C(=O)OCC(F)(F)C(F)(F)C(F)(F)COC(=O)c2cccc(*)c2)c1 (repeat unit)
Second: *CCCCCCOC(=O)c1ccc(-c2ccc(C(=O)O*)cc2)cc1 (repeat unit)
The glass transition temperature of the first is lower: 20.00 °C for the first, 51.00 °C for the second.

First: *Nc1ccc(Cc2ccc(NC(=O)c3ccc(P(=O)(c4ccccc4)c4ccc(C(*)=O)cc4)cc3)cc2)cc1 (repeat unit)
Second: *C(=O)NNC(=O)c1ccc([Si](c2ccccc2)(c2ccccc2)c2ccc(C(=O)NNC(=O)c3ccc(*)o3)cc2)cc1 (repeat unit)
The glass transition temperature of the first is higher: 307.00 °C for the first, 252.00 °C for the second.

First: *CC(*)C(=O)OCCCCCCOc1ccc(C(=O)Oc2ccc(OC)cc2)cc1 (repeat unit)
Second: *CC(O)COC(=O)CCCCC(=O)OCC(O)COc1ccc(C(=O)Oc2ccc(O*)cc2)cc1 (repeat unit)
The glass transition temperature of the first is lower: 29.50 °C for the first, 37.00 °C for the second.

Compared with *C1C(=O)OC(=O)C1C1C2CC(C(=O)OC(C)CC)C(C2)C1* (repeat unit), *C1C2CCC(C2)C1* (repeat unit) is higher in glass transition temperature: 175.00 °C for the first, 240.00 °C for the second.

Compared with *CCCCCCOC(=O)Nc1ccc(NC(=O)OCCCCCCOc2ccc(-c3ccc(O*)cc3)cc2)c(C)c1 (repeat unit), *CCCCCOC(=O)c1ccccc1C(=O)[O][Pb][O]C(=O)c1ccccc1C(=O)OCCCCCOC(=O)Nc1ccc(C)c(NC(=O)O*)c1 (repeat unit) is lower in glass transition temperature: 89.00 °C for the first, -11.30 °C for the second.

Going from *CC(*)C(=O)OCCOCC(F)(F)F (repeat unit) to *CC(C)(C)COC(=O)CCCCC(=O)O* (repeat unit), the glass transition temperature rises from -38.00 °C to -31.5 °C.

Compared with *CC(*)c1ccc(F)cc1 (repeat unit) [Poly(4-fluorostyrene)], *CC(*)c1ccc(CCC(F)(F)C(F)(F)C(F)(F)C(F)(F)F)cc1 (repeat unit) is lower in glass transition temperature: 104 ± 4.9 °C for the first, 23.00 °C for the second.

Compared with *CCCC1CC(=O)N(*)C(=O)C1 (repeat unit), *CCCC(=O)O* (repeat unit) is lower in glass transition temperature: 90.00 °C for the first, 1.50 °C for the second.

Compared with *CCOP(=O)(/N=N/c1ccc(CCOC(=O)c2cc(C(=O)OCCc3ccc(/N=N/P(=O)(O*)OC)cc3)cc(C(C)(C)C)c2)cc1)OC (repeat unit), *C(=O)OCCOCCOCCOC(=O)c1ccc(N2C(=O)c3ccc(*)cc3C2=O)cc1 (repeat unit) is lower in glass transition temperature: 84.00 °C for the first, 63.00 °C for the second.

Compared with *c1cccc(S(=O)(=O)NCCNS(*)(=O)=O)c1 (repeat unit), *c1ccc2[nH]c(*)nc2c1 (repeat unit) is higher in glass transition temperature: 107.00 °C for the first, 398.00 °C for the second.

Compared with *CC(C)(C)CS* (repeat unit), *O[Si](C)(C)CC[Si](*)(C)O[Si](C)(C)C (repeat unit) is lower in glass transition temperature: -49.30 °C for the first, -89.00 °C for the second.

Compared with *c1nnc(-c2cc(CCCCCCCC)c(-c3ccc(-c4sc(-c5nnc(-c6cc(OCCCCCCCC)c(*)cc6OCCCCCCCC)o5)cc4CCCCCCCC)s3)s2)o1 (repeat unit), *c1ccc2c(c1)C(CCCCCCCC)(CCCCCCCC)c1cc(-c3ccc4c(c3)C(c3ccc(-c5nnc(-c6ccc(C(C)(C)C)cc6)o5)cc3)(c3ccc(-c5nnc(-c6ccc(C(C)(C)C)cc6)o5)cc3)c3cc(*)ccc3-4)ccc1-2 (repeat unit) is higher in glass transition temperature: 34.10 °C for the first, 213.00 °C for the second.

Going from *NC(CCC(=O)OCCC)C(*)=O (repeat unit) to *CC(*)(CC(=O)OCCC1CCCCC1)C(=O)OCCC1CCCCC1 (repeat unit), the glass transition temperature rises from -10.00 °C to 48.00 °C.

First: *c1ccc(Cc2ccccc2-n2c(=O)c3cc4c(=O)n(*)c(=O)c4cc3c2=O)cc1 (repeat unit)
Second: *c1ccc(-c2ccc(-n3c(=O)c4cc5c(=O)n(*)c(=O)c5cc4c3=O)cc2F)c(F)c1 (repeat unit)
The glass transition temperature of the first is lower: 356.50 °C for the first, 398.00 °C for the second.

Compared with *Oc1ccc(C(C)(C)c2ccc(OC(=O)c3ccc(C(*)=O)cc3)c(C(C)C)c2)cc1C(C)C (repeat unit), *Oc1ccc(OC(=O)c2ccc(OCCCCCCOc3ccc(C(*)=O)cc3)cc2)cc1/N=N/c1ccc(C#N)cc1 (repeat unit) is lower in glass transition temperature: 140.00 °C for the first, 98.00 °C for the second.

Going from *c1ccc(C(Cl)(Cl)C(*)Cl)cc1 (repeat unit) to *COc1ccc(C(=C(Cl)Cl)c2ccc(O*)cc2)cc1 (repeat unit), the glass transition temperature falls from 160.00 °C to 108.00 °C.

Going from *Oc1cccc(OC2(F)C(*)(F)C(F)(F)C2(F)F)c1 (repeat unit) to *c1ccc(-c2cc(CCCCCCOC(=O)COc3ccccc3)c(*)s2)s1 (repeat unit), the glass transition temperature rises from 32.00 °C to 79.00 °C.

Compared with *CC(*)c1cc(OC)c(O)c(OC)c1 (repeat unit), */C(=C/c1cc(OC)c(/C=C(\c2ccc(F)cc2)c2ccc(-c3ccc(*)cc3)cc2)cc1OC)c1ccc(F)cc1 (repeat unit) is higher in glass transition temperature: 147.00 °C for the first, 201.00 °C for the second.

Going from *c1cccc(C(=O)Nc2ccc(Cc3ccc(N4C(=O)c5ccc(S(=O)(=O)c6ccc7c(c6)C(=O)N(c6ccc(Cc8ccc(NC(=O)c9cccc(-c%10nc%11cc(-c%12ccc%13[nH]c(*)nc%13c%12)ccc%11[nH]%10)c9)cc8)cc6)C7=O)cc5C4=O)cc3)cc2)c1 (repeat unit) to *C(=O)Nc1ccc(Oc2cccc(NC(=O)c3ccc4c(c3)C(=O)N(c3ccc(Oc5cccc(N6C(=O)c7ccc(*)cc7C6=O)c5)cc3)C4=O)c2)cc1 (repeat unit), the glass transition temperature falls from 270.00 °C to 211.00 °C.

First: *c1ccc2c(c1)C(=O)N(c1ccc(OCCCCCCOc3ccc(N4C(=O)c5ccc(C(*)(C(F)(F)F)C(F)(F)F)cc5C4=O)cc3)cc1)C2=O (repeat unit)
Second: *C(=O)Nc1ccc(-c2ccc(NC(=O)c3ccc4c(c3)C(=O)N(c3c(C)cc(C)c(N5C(=O)c6ccc(*)cc6C5=O)c3C)C4=O)cc2C(F)(F)F)c(C(F)(F)F)c1 (repeat unit)
The glass transition temperature of the first is lower: 167.00 °C for the first, 267.00 °C for the second.

Compared with *C(F)(F)C(*)(F)c1c(F)c(F)c(F)c(F)c1F (repeat unit), *c1ccc(Oc2ccc(C(C)(C)c3ccc(Oc4ccc(-c5ccc(*)s5)cc4C(F)(F)F)cc3)cc2)c(C(F)(F)F)c1 (repeat unit) is lower in glass transition temperature: 194.00 °C for the first, 130.00 °C for the second.

Compared with *Oc1ccc(C2(c3ccc(OC(*)=O)cc3)c3cc(OC)ccc3-c3ccc([N+](=O)[O-])cc32)cc1 (repeat unit), *Cc1ccc2oc(=O)c(C(=O)Nc3ccc(Oc4ccc(NC(=O)c5cc6cc(*)ccc6oc5=O)cc4)cc3)cc2c1 (repeat unit) is higher in glass transition temperature: 294.00 °C for the first, 312.00 °C for the second.

Going from *=NP(=NP(=NC(=*)Oc1ccccc1C(F)(F)F)(Oc1ccccc1C(F)(F)F)Oc1ccccc1C(F)(F)F)(Oc1ccccc1C(F)(F)F)Oc1ccccc1C(F)(F)F (repeat unit) to *O[Si](O[Si](C)(C)c1ccc([Si](*)(C)C)cc1)(c1ccccc1)c1ccccc1 (repeat unit), the glass transition temperature rises from -20.00 °C to 0.00 °C.

Compared with */C=C(\C#N)C(=O)NC1CCCCC1NC(=O)/C(C#N)=C/c1ccc(/C=C/c2ccc(N(CC)Cc3cccc(CN(CC)c4ccc(/C=C/c5ccc(*)s5)cc4)c3)cc2)s1 (repeat unit), *c1ccc(Oc2ccc(NC(=O)c3cccc(C(=O)Nc4ccc(Oc5ccc(-n6c(=O)c7cc8c(=O)n(*)c(=O)c8cc7c6=O)cc5)cc4)c3)cc2)cc1 (repeat unit) is higher in glass transition temperature: 157.00 °C for the first, 282.00 °C for the second.

With *c1ccc(Oc2cc(C(C)(C)C)ccc2Oc2ccc(-n3c(=O)c4cc5c(=O)n(*)c(=O)c5cc4c3=O)cc2)cc1 (repeat unit) the glass transition temperature was 321.00 °C.
